Here are results for 14 compounds from PubChem BioAssay (NCI).

Experiment in all cases: DTP human tumour cell line panel, 48 h
For experiment [1], the system named is CAKI-1 renal.
In experiment [2] the test system is DU-145 prostate.
Experiment [3] deals with SF-539 CNS.
The subject of experiment [4] is RXF 393 renal.
For experiment [5], the system named is SN12C renal.
The subject of experiment [6] is NCI/ADR-RES ovarian.
Experiment [7] concerns UO-31 renal.
In experiment [8] the test system is 786-0 renal.
Experiment [9] concerns PC-3 prostate.
Experiment [10] concerns HS 578T breast.
In experiment [11] the test system is T-47D breast.
Experiment [12] relates to OVCAR-5 ovarian.
The test system of experiment [13] is SF-295 CNS.
For experiment [14], the system named is MALME-3M melanoma.
In experiment [15] the test system is U251 CNS.
In experiment [16] the test system is CCRF-CEM leukemia.
The test system of experiment [17] is SK-MEL-2 melanoma.
Experiment [18] relates to KM12 colon.
For experiment [19], the system named is NCI-H460 lung.
Experiment [20] relates to K-562 leukemia.

Structures are written as SMILES.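 Values below derive from 48-hour exposures of cells grown in 96-well plates, with endpoints linearly interpolated between the two concentrations bracketing the appropriate inhibition level. Definition used: TGI = concentration required for complete inhibition of growth.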

Take `CC(C)CC1C(=O)NCCC(NC(=O)C(N)Cc2ccc(O)cc2)C(=O)NC(Cc2ccccc2)C(=O)NC(Cc2ccccc2)NC1=O` (configuration not stated): the TGI in experiment [1], in experiment [2], in [3], in [4], in experiment [5] and in experiment [6] was greater than 100 µM throughout. Further, the TGI in experiment [7], in experiment [8], in [9], in experiment [10], in experiment [11] and in [12] was greater than 100 µM in each case. Further, the TGI in experiment [13], in experiment [14], in [15], in experiment [16], in experiment [17] and in experiment [18] was greater than 100 µM in each case. For the same compound, the concentration for total growth inhibition (TGI) in experiment [19] and in experiment [20] was greater than 100 µM in each case.

For `COc1cc(NC(C)=O)ccc1C(=O)N/N=C/c1ccc(Cl)cc1Cl`, the TGI (in general, the concentration at which net growth stops) in experiment [1] is greater than 100 µM; in experiment [2], greater than 100 µM; in experiment [3], greater than 100 µM; in [4], 72.5 µM; in experiment [5], 64.6 µM; in experiment [6], greater than 100 µM. In addition, the TGI was greater than 100 µM in experiment [7]; 64.4 µM in [8]; greater than 100 µM in experiment [9]; greater than 100 µM in experiment [10]; 70.8 µM in experiment [11]; greater than 100 µM in experiment [12]. Moreover, the TGI was greater than 100 µM in experiment [13]; greater than 100 µM in [14]; greater than 100 µM in [16]; 51.3 µM in [17]; greater than 100 µM in experiment [18]; greater than 100 µM in experiment [20].

Regarding `CC(C)(C)C(=O)C(C(=O)C(C)(C)C)C(=O)C(C)(C)C`, the TGI in experiment [1], in experiment [2], in [3], in experiment [4], in [5] and in experiment [6] was greater than 100 µM in each case. The TGI in experiment [7], in experiment [8], in experiment [9], in [10], in experiment [11] and in [12] was greater than 100 µM in each case. The TGI in [13], in [14], in [15], in experiment [16], in [17] and in experiment [18] was greater than 100 µM throughout. Further, the TGI in experiment [19] and in experiment [20] was greater than 100 µM each time.

As to `COc1c(C)c2c(c(=O)c3c(C)cccc3n2C)c2c1c(=O)c1c(C)cccc1n2C`, the TGI in [1], in experiment [2], in experiment [3], in experiment [4], in [5] and in experiment [6] was greater than 10 µM each time. Further, the TGI in experiment [7], in experiment [8], in experiment [9], in [10], in experiment [11] and in experiment [12] was greater than 10 µM throughout. Moreover, the TGI in experiment [13], in experiment [14], in [15], in experiment [16], in experiment [17] and in experiment [18] was greater than 10 µM each time. Besides, the TGI in [19] and in [20] was greater than 10 µM each time.

For the compound `Cc1c(C)c2c(c(N)c1C#N)C(=O)N(Nc1ccccc1)C2=O`, the TGI in experiment [1] was greater than 100 µM; in experiment [2], greater than 100 µM; in experiment [3] it was greater than 100 µM; in experiment [4], 47.1 µM; in [5], greater than 100 µM; in [6], greater than 100 µM. Besides, the TGI in experiment [7], in [8], in experiment [9], in experiment [10], in experiment [11] and in [12] was greater than 100 µM in each case. Moreover, the TGI in [13], in experiment [14], in [15], in experiment [16], in [17] and in experiment [18] was greater than 100 µM throughout. For the same compound, the TGI in [19] and in [20] was greater than 100 µM each time.

For the compound `Oc1cc(-c2ccccc2)cn2c1nc1ccccc12`, the TGI is greater than 100 µM in experiment [1]; greater than 31.6 µM in experiment [2]; greater than 96.6 µM in experiment [3]; greater than 100 µM in experiment [4]; greater than 100 µM in experiment [5]; 11.8 µM in experiment [6]. Moreover, the TGI was greater than 32.8 µM in experiment [7]; greater than 79.7 µM in experiment [8]; greater than 100 µM in experiment [9]; 47.7 µM in [10]; greater than 100 µM in experiment [11]; greater than 100 µM in experiment [12]. Also, the TGI in experiment [13] was greater than 46.1 µM; in experiment [14] it was greater than 100 µM; in experiment [15], greater than 100 µM; in experiment [16], greater than 100 µM; in experiment [17] it was greater than 100 µM; in experiment [18] it was greater than 100 µM. In addition, the TGI in [19] and in experiment [20] was greater than 100 µM throughout.

For `Cc1ccc(N=Nc2ccc(O)c(CN(C)C)c2)cc1C`, the TGI in experiment [1] was greater than 100 µM; in [2], 95.8 µM; in experiment [3], 44.1 µM; in [4], 57.8 µM; in experiment [5], greater than 100 µM; in [6], 52.6 µM. Also, the TGI in experiment [7] is 53.2 µM; in experiment [8], greater than 100 µM; in experiment [9] it was greater than 100 µM; in [10], 56.2 µM; in experiment [11] it was 41.9 µM; in experiment [12] it was greater than 100 µM. Moreover, the total growth inhibition concentration (TGI) in experiment [13] is greater than 100 µM; in experiment [14] it was 34.8 µM; in experiment [15], greater than 100 µM; in [16], 76.5 µM; in experiment [17] it was 34.7 µM; in [18], 45.6 µM. Further, the TGI was 42.6 µM in experiment [19] and 43.5 µM in [20].

Regarding `Nc1nc(N)c(NC(=O)CCCO)c(=O)[nH]1`, the TGI in [1], in experiment [2], in [3], in experiment [4], in experiment [5] and in experiment [6] was greater than 100 µM in each case. The TGI in [7], in experiment [8], in [9], in experiment [10], in [11] and in [12] was greater than 100 µM each time. Further, the TGI in experiment [13], in experiment [14], in [15], in experiment [16], in experiment [17] and in [18] was greater than 100 µM throughout. The TGI in [19] and in experiment [20] was greater than 100 µM in each case.

For `COc1cc(OC)c2c(=O)cc(-c3ccccc3F)[nH]c2c1`, the TGI in [1] was greater than 100 µM; in [2], greater than 100 µM; in experiment [4], greater than 100 µM; in experiment [5], greater than 100 µM; in [6] it was greater than 100 µM; in experiment [7], 84.5 µM. Further, the TGI in experiment [8], in experiment [9], in experiment [10], in experiment [11], in experiment [12] and in [13] was greater than 100 µM each time. For the same compound, the TGI in [14], in experiment [15], in experiment [16], in [17], in [18] and in experiment [19] was greater than 100 µM in each case. The TGI in [20] is greater than 100 µM.

`COc1cc(/C=C2\C[C@H]3[C@@H]4CC=C5C=C(N6CCCC6)CC[C@]5(C)[C@H]4CC[C@]3(C)C2=O)cc(OC)c1OC`: the TGI in experiment [1] was 7.61 µM; in experiment [2], 12.8 µM; in [3], 12.5 µM; in [4], 4.04 µM; in experiment [5] it was 12.1 µM; in experiment [6] it was greater than 23.3 µM. Also, the TGI in experiment [7] is 8.48 µM; in experiment [8] it was greater than 24.2 µM; in experiment [9] it was 15.2 µM; in experiment [10] it was 6.21 µM; in experiment [11], 11.1 µM; in [12], 30.8 µM. The concentration for total growth inhibition (TGI) in [13] was 7.04 µM; in [14], 5.61 µM; in [15], 4.7 µM; in experiment [16], greater than 100 µM; in experiment [17], 13 µM; in [18] it was 4.37 µM. Further, the TGI in experiment [20] is greater than 100 µM.

`Cc1ccc(C)n1-n1c(Cc2ccccc2)n[nH]c1=O`: the concentration for total growth inhibition (TGI) in experiment [1], in [2], in experiment [4], in [5], in experiment [6] and in experiment [7] was greater than 100 µM throughout. The total growth inhibition concentration (TGI) in experiment [8], in experiment [9], in [10], in experiment [11], in experiment [12] and in experiment [13] was greater than 100 µM in each case. The TGI in experiment [14], in experiment [15], in [16], in [17], in experiment [18] and in experiment [19] was greater than 100 µM each time. Also, in experiment [20], the TGI is greater than 100 µM.

`Cc1ccc(NC(=O)CSc2nc(C)nc3c2sc(=S)n3-c2ccccc2)cc1`: the TGI in experiment [1] was greater than 10 µM; in experiment [2], greater than 10 µM; in experiment [3], 7.81 µM; in experiment [4], 9.17 µM; in experiment [5], greater than 10 µM; in [6], greater than 10 µM. Moreover, the TGI in experiment [8] was 6.92 µM; in [9] it was greater than 10 µM; in [10] it was 6.3 µM; in experiment [11] it was greater than 10 µM; in [12], greater than 10 µM; in experiment [13], greater than 10 µM. In addition, the TGI in experiment [14], in experiment [15], in experiment [16], in [17], in experiment [18] and in [19] was greater than 10 µM throughout. Moreover, in experiment [20], the TGI was greater than 10 µM.

Turning to `COc1cc(C)c(/C=C/C(=O)N2C(=O)OC[C@@H]2c2ccccc2)c(C)c1`, the TGI in experiment [1], in experiment [2], in experiment [3], in [4], in experiment [5] and in [6] was greater than 100 µM in each case. Besides, the TGI in experiment [7] is greater than 100 µM; in experiment [8], greater than 100 µM; in [9] it was greater than 100 µM; in experiment [10], greater than 100 µM; in experiment [11] it was 74.1 µM; in [12], greater than 100 µM. For the same compound, the TGI in experiment [13], in [14], in [15], in experiment [16], in experiment [17] and in experiment [18] was greater than 100 µM each time. The same compound displayed a total growth inhibition concentration (TGI) in experiment [20] greater than 100 µM.

As for `CC(C)(C)c1cc(C2NCCO2)cc(C(C)(C)C)c1O` (configuration not stated), the TGI is greater than 100 µM in experiment [1]; greater than 100 µM in experiment [2]; greater than 100 µM in experiment [3]; 37.8 µM in [4]; greater than 100 µM in [5]; greater than 100 µM in experiment [6]. The TGI in experiment [8] was greater than 100 µM; in experiment [9], greater than 100 µM; in experiment [10], greater than 100 µM; in experiment [11], 27.6 µM; in experiment [12], greater than 100 µM; in experiment [13], greater than 100 µM. Moreover, the concentration for total growth inhibition (TGI) in experiment [14], in experiment [15], in experiment [16], in experiment [17], in experiment [18] and in experiment [19] was greater than 100 µM each time. In addition, the TGI in experiment [20] was greater than 100 µM.
